Patent US20180186755A1, “LYSYL OXIDASE-LIKE 2 INHIBITORS AND USES THEREOF” (PharmAkea, Inc., priority 2015, published 2018)

Biological target: T1, human LOXL2 (Homo sapiens, UniProt Q9Y4K0)
T1 construct: expressed in transfected cells; 10-20x concentrated conditioned media used as the enzyme source
T1 sequence (Q9Y4K0 26-774): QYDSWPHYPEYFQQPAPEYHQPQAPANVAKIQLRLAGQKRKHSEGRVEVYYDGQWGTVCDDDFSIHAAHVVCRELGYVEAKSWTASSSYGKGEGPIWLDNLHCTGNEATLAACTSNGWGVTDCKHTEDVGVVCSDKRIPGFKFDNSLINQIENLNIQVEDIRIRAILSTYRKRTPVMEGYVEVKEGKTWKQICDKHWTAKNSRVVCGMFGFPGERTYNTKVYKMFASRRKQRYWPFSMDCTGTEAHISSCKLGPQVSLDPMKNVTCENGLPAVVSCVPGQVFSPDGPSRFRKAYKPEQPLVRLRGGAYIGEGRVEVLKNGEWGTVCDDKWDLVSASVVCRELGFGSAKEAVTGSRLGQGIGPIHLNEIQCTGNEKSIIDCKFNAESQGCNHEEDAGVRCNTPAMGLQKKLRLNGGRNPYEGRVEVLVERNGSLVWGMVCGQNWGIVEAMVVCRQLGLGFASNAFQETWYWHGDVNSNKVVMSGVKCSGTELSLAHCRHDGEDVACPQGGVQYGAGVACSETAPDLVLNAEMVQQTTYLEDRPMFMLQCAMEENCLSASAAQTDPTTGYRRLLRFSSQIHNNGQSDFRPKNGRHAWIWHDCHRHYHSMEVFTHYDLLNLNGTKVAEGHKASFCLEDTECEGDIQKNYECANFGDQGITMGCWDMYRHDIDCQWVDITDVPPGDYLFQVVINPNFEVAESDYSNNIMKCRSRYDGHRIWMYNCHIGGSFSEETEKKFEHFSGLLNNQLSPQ
Test: Human LOXL2 amine oxidase activity assay (Amplex Red fluorescence)
Type: biochemical
Conditions: concentrated conditioned media from CHO cells stably expressing human LOXL2; 2 h at 37° C. preincubation; DAP substrate
Experimental: Example B-1: Human LOXL2 Amine Oxidase Activity Assay
LOXL2 amine oxidase activity is evaluated by measuring Amplex Red fluorescence using 10-20× concentrated conditioned media from CHO cells stably expressing human LOXL2.
To assay for amine oxidase activity, 10 μL of the concentrated conditioned media is incubated with 2 μL of test compound in DMSO and 73 μL Assay Buffer (50 mM Borate Buffer, pH8) for 2 h at 37° C. After the 2 h incubation, 5 ul of 10 mM 1,5-Diaminopentane (DAP) diluted in Assay Buffer and 10 μl of Amplex Red Mix (8.5 μl Assay Buffer+0.5 μl of 10 mM Amplex Red+1 μl of 500 U/ml Horseradish Peroxidase) are added and the plate mixed and immediately placed on the FlexStaion for fluorescence measurements. Fluorescence is read in kinetic mode every 2 min for 1 hour at excitation=544 and emission=590. The amine oxidase activity is calculated from the slope of the linear portion of the curve.

Structure (SMILES) | IC50 [nM]
NCc1cc(Oc2cccc(C(=O)NCc3nc4ccccc4o3)c2)ncn1 [Compound 1-68, 3-((6-(Aminomethyl)pyrimidin-4-yl)oxy)-N-(benzo[d]oxazol-2-ylmethyl)benzamide] | < 100
NCc1cc(Oc2cccc(C(=O)N3CCc4cccnc4C3)c2)ncn1 [Compound 1-69, (3-((6-(Aminomethyl)pyrimidin-4-yl)oxy)phenyl)(5,6-dihydro-1,7-naphthyridin-7(8H)-yl)methanone] | < 100
Cc1n[nH]c2c1CN(C(=O)c1cccc(Oc3cc(CN)ncn3)c1)CC2 [Compound 1-70, (3-((6-(Aminomethyl)pyrimidin-4-yl)oxy)phenyl)(3-methyl-6,7-dihydro-1H-pyrazolo[4,3-c]pyridin-5(4H)-yl)methanone] | < 100
NCc1cc(Oc2cccc(C(=O)N3CCc4c([nH]c5ncccc45)C3)c2)ncn1 [Compound 1-71, (3-((6-(Aminomethyl)pyrimidin-4-yl)oxy)phenyl)(5H-pyrrolo[2,3-b:5,4-c′]dipyridin-7(6H,8H,9H)-yl)methanone] | < 100
NCc1cc(Oc2cccc(C(=O)N3CCN(c4ncc(Cl)cc4Cl)CC3)c2)ncn1 [Compound 1-73, (3-((6-(Aminomethyl)pyrimidin-4-yl)oxy)phenyl)(4-(3,5-dichloropyridin-2-yl)piperazin-1-yl)methanone] | < 100
NCc1cc(Oc2cccc(C(=O)N3CCC(O)(C(F)(F)F)CC3)c2)ncn1 [Compound 1-74, (3-((6-(Aminomethyl)pyrimidin-4-yl)oxy)phenyl)(4-hydroxy-4-(trifluoromethyl)piperidin-1-yl)methanone] | < 100
C#C[C@H](CC(=O)OC)NC(=O)c1cccc(Oc2cc(CN)ncn2)c1 [Compound 1-75, (S)-Methyl 3-(3-((6-(aminomethyl)pyrimidin-4-yl)oxy)benzamido)pent-4-ynoate] | < 100
C#C[C@@H](CC(=O)OC)NC(=O)c1cccc(Oc2cc(CN)ncn2)c1 [Compound 1-76, (R)-Methyl 3-(3-((6-(aminomethyl)pyrimidin-4-yl)oxy)benzamido)pent-4-ynoate] | < 100
NCc1cc(OCc2cccc(C(=O)Nc3cccc(C(F)(F)F)c3)c2)ncn1 [Compound 1-77, 3-(((6-(Aminomethyl)pyrimidin-4-yl)oxy)methyl)-N-(3-(trifluoromethyl)phenyl)benzamide] | < 100
NCc1cc(OCc2cccc(C(=O)N[C@@H](CO)c3ccccc3)c2)ncn1 [Compound 1-78, (R)-3-(((6-(Aminomethyl)pyrimidin-4-yl)oxy)methyl)-N-(2-hydroxy-1-phenylethyl)benzamide] | < 100
NCc1cc(OCc2cccc(C(=O)NCc3cccnc3)c2)ncn1 [Compound 1-79, 3-(((6-(Aminomethyl)pyrimidin-4-yl)oxy)methyl)-N-(pyridin-3-ylmethyl)benzamide] | < 100
NCc1cc(OCc2cccc(C(=O)NCc3ccnc(Cl)c3)c2)ncn1 [Compound 1-80, 3-(((6-(Aminomethyl)pyrimidin-4-yl)oxy)methyl)-N-((2-chloropyridin-4-yl)methyl)benzamide] | < 100
NCc1cc(OCc2cccc(C(=O)NCc3cc4ccccc4s3)c2)ncn1 [Compound 1-81, 3-(((6-(Aminomethyl)pyrimidin-4-yl)oxy)methyl)-N-(benzo[b]thiophen-2-ylmethyl)benzamide] | < 100
NCc1cc(OCc2cccc(C(=O)NCc3cc4cc(F)ccc4s3)c2)ncn1 [Compound 1-82, 3-(((6-(Aminomethyl)pyrimidin-4-yl)oxy)methyl)-N-((5-fluorobenzo[b]thiophen-2-yl)methyl)benzamide] | < 100
NCc1cc(OCc2cccc(C(=O)NCc3nc4ccccc4o3)c2)ncn1 [Compound 1-83, 3-(((6-(Aminomethyl)pyrimidin-4-yl)oxy)methyl)-N-(benzo[d]oxazol-2-ylmethyl)benzamide] | < 100
NCc1cc(OCc2cccc(C(=O)NCc3cc4ccccc4[nH]3)c2)ncn1 [Compound 1-84, N-((1H-indol-2-yl)methyl)-3-(((6-(aminomethyl)pyrimidin-4-yl)oxy)methyl)benzamide] | < 100
NCc1cc(OCc2cccc(C(=O)NCc3cc4cc(F)ccc4[nH]3)c2)ncn1 [Compound 1-85, 3-(((6-(Aminomethyl)pyrimidin-4-yl)oxy)methyl)-N-((5-fluoro-1H-indol-2-yl)methyl)benzamide] | < 100
Cn1c(CNC(=O)c2cccc(COc3cc(CN)ncn3)c2)cc2ccccc21 [Compound 1-86, 3-(((6-(Aminomethyl)pyrimidin-4-yl)oxy)methyl)-N-((1-methyl-1H-indol-2-yl)methyl)benzamide] | < 100
NCc1cc(OCc2cccc(C(=O)NCc3cc4cccnc4[nH]3)c2)ncn1 [Compound 1-87, N-((1H-pyrrolo[2,3-b]pyridin-2-yl)methyl)-3-(((6-(aminomethyl)pyrimidin-4-yl)oxy)methyl)benzamide] | < 100
NCc1cc(OCc2cccc(C(=O)N3CCc4cccnc4C3)c2)ncn1 [Compound 1-88, (3-(((6-(Aminomethyl)pyrimidin-4-yl)oxy)methyl)phenyl)(5,6-dihydro-1,7-naphthyridin-7(8H)-yl)methanone] | < 100
Cc1n[nH]c2c1CN(C(=O)c1cccc(COc3cc(CN)ncn3)c1)CC2 [Compound 1-89, (3-(((6-(Aminomethyl)pyrimidin-4-yl)oxy)methyl)phenyl)(3-methyl-6,7-dihydro-1H-pyrazolo[4,3-c]pyridin-5(4H)-yl)methanone] | < 100
NCc1cc(OCc2cccc(C(=O)N3CCc4c([nH]c5ncccc45)C3)c2)ncn1 [Compound 1-90, (3-(((6-(Aminomethyl)pyrimidin-4-yl)oxy)methyl)phenyl)(5H-pyrrolo[2,3-b:5,4-c′]dipyridin-7(6H,8H,9H)-yl)methanone] | < 100
NCc1cc(OCc2cccc(C(=O)N3CCN(c4ccccc4)CC3)c2)ncn1 [Compound 1-91, (3-(((6-(Aminomethyl)pyrimidin-4-yl)oxy)methyl)phenyl)(4-phenylpiperazin-1-yl)methanone] | < 100
NCc1cc(OCc2cccc(C(=O)N3CCc4cccnc43)c2)ncn1 [Compound 1-92, (3-(((6-(Aminomethyl)pyrimidin-4-yl)oxy)methyl)phenyl)(2,3-dihydro-1H-pyrrolo[2,3-b]pyridin-1-yl)methanone] | < 100
NCc1cc(OCc2cccc(C(=O)N3CCc4ccncc43)c2)ncn1 [Compound 1-93, (3-(((6-(Aminomethyl)pyrimidin-4-yl)oxy)methyl)phenyl)(2,3-dihydro-1H-pyrrolo[2,3-c]pyridin-1-yl)methanone] | < 100
NCc1cc(OCc2cccc(C(=O)N3CCC(O)(C(F)(F)F)CC3)c2)ncn1 [Compound 1-94, (3-(((6-(Aminomethyl)pyrimidin-4-yl)oxy)methyl)phenyl)(4-hydroxy-4-(trifluoromethyl)piperidin-1-yl)methanone] | < 100
NCc1cc(NCc2cccc(C(=O)Nc3cccc(C(F)(F)F)c3)c2)ncn1 [Compound 1-96, 3-(((6-(Aminomethyl)pyrimidin-4-yl)amino)methyl)-N-(3-(trifluoromethyl)phenyl)benzamide] | < 100
NCc1cc(NCc2cccc(C(=O)NCc3cc4ccccc4s3)c2)ncn1 [Compound 1-97, 3-(((6-(Aminomethyl)pyrimidin-4-yl)amino)methyl)-N-(benzo[b]thiophen-2-ylmethyl)benzamide] | < 100
